Among the data in paper PMC5118696, “Identification of inhibitors that dually target the new permeability pathway and dihydroorotate dehydrogenase in the blood stage of Plasmodium falciparum” (Scientific Reports, 2016) are activity values, retold here.

Where two headings read alike, the source gives them in different places.

The subject of assay [1] is Hyp1-NLuc Plasmodium falciparum-infected erythrocytes (new permeability pathway, NPP). The assay can be described thus: microbe, parasite or virus in culture. The conditions noted are these: Erythrocyte, 0.33 h, read-out: Mean RLU at 28 min (As % of DMSO control).
The test system is the same in assay [2]. The assay can be described thus: microbe, parasite or virus in culture. The note with it: Erythrocyte, 0.33 h, read-out: % of control remaining.

`COc1cccc(Cn2c(Oc3ccccc3)nc3c2c(=O)n(C)c(=O)n3C)c1` [MMV396705]: the activity at 2 µM in assay [1] was 102%; in assay [2] it was 101%.
For the compound `CC1(c2ccccc2)Nc2ccccc2-c2nc3ccccc3n21` (stereo not drawn) [MMV396715], the activity at 2 µM turned out to be 102% in assay [1] and 100% in assay [2].
As to `COc1ccc(CCN2C(=O)c3[nH]nc(-c4cc(Cl)c(C)cc4O)c3C2c2ccccc2F)cc1` (stereo not drawn) [MMV396717], the activity at 2 µM turned out to be 96.5% in assay [1] and 80.3% in assay [2].
For `COc1cccc(C2(C)Nc3ccccc3-c3nc4ccccc4n32)c1` (stereo not drawn) [MMV396719], the activity at 2 µM in assay [1] and in assay [2] was 105% each time.
On to `N=c1n(CCN2CCCCC2)c2ccccc2n1CC(=O)c1ccc(Cl)c(Cl)c1` [MMV396723], for which the values for the activity at 2 µM in assay [1] and in assay [2] were 98.3% and 91.7%, respectively.
As to `N#Cc1nc(Cc2cccc3ccccc23)oc1N1CCN(C(c2ccccc2)c2ccccc2)CC1` [MMV396726], the activity at 2 µM was found to be 99.9% in assay [1] and 99.5% in assay [2].
On to `OC(CNCC1CCCO1)Cn1c2ccc(Cl)cc2c2cc(Cl)ccc21` (stereo not drawn) [MMV396736], for which the results for the activity at 2 µM in assay [1] and in assay [2] were 116% and 112%, respectively.
For `CC(C)CNC(=O)c1c(N)n(CCc2ccccc2F)c2nc3ccccc3nc12` [MMV396744] the same measures were 108% and 110%.
As for `COc1ccc2c(c1)C1(Nc3ccccc3-c3nc4ccccc4n31)C(=O)N2` (stereo not drawn) [MMV396749], the activity at 2 µM in assay [1] was 103%; in assay [2], 104%.
Regarding `O=C(NNc1cc(N2CCCC2)nc(N2CCCC2)n1)c1ccccc1` [MMV396770], the activity at 2 µM in assay [1] amounted to 101%; in assay [2], 88.7%.
Taken in the same sequence, the figures for `CC(C)(C)CC(C)(C)NCC(O)COc1ccc(Cl)cc1Cl` (stereo not drawn) [MMV396794] were 111% and 109%.
Turning to `COc1ccc(-c2c(C)nn3c(N)c(C#N)cnc23)cc1OC` [MMV396797], the activity at 2 µM in assay [1] was 104%; in assay [2] it was 89.6%.
Regarding `Cc1cccc(-n2ncc3c(=O)[nH]c(-n4nc(C)cc4NC(=O)c4cc5ccccc5o4)nc32)c1` [MMV403679], the activity at 2 µM in assay [1] and in assay [2] was 109% each time.
In the case of `CCOC(=O)c1cnc2c(CC)cccc2c1O` [MMV498479], the activity at 2 µM in assay [1] turned out to be 103%; in assay [2], 107%.
For `Nc1ccn(C2O[C@H](CO)[C@@H](O)[C@H]2O)c(=O)n1` (stereo partly drawn) [MMV638723] the same measures were 86.2% and 88.6%.
In the case of `O=C1C2=C(Nc3ccccc3SC2c2ccccc2)c2ccccc21` (stereo not drawn) [MMV645672], the activity at 2 µM in assay [1] and in assay [2] was 106% throughout.
For `CCN(CC)CCCNc1ccnc2cc3ccccc3cc12` [MMV665783], the activity at 2 µM amounted to 101% in assay [1] and 106% in assay [2].
`CC(C)(C)c1ccc(O)c(CNC2CCCCC2)c1` [MMV665785]: the figures for the activity at 2 µM in assay [1] and in assay [2] were 103% and 104%, respectively.
Regarding `O=c1cc(NC2CCN(CCCc3ccccc3)CC2)c2cc(Cl)ccc2o1` [MMV665786], the activity at 2 µM in assay [1] is 96.5%; in assay [2] it was 89.1%.
For `CC(NCc1ccccc1)c1cc(Cl)ccc1O` (stereo not drawn) [MMV665789] the same measures were 107% and 117%.
On to `FC(F)(F)c1cccc(Nc2nc3ccccc3nc2Nc2cccc(C(F)(F)F)c2)c1` [MMV665794], for which the activity at 2 µM in assay [1] came out at 103%; in assay [2], 109%.
Taken in the same sequence, the figures for `CCOc1cc(Br)c(C(C)NC(=O)c2cccc(OC)c2)cc1OCC` (stereo not drawn) [MMV665796] were 106% and 115%.
For `CCCCOC(=O)c1ccc(Nc2cc(C)nc3ccc(OC)cc23)cc1` [MMV665797] the same measures were 104% and 107%.
For `FC(F)(F)c1cccc(Nc2nc(-c3ccccc3)nc3ncccc23)c1` [MMV665798] the same measures were 103% and 117%.
For the compound `COc1ccc(C(=O)Nc2ccc(Cl)cc2C(=O)Nc2ccncc2)cc1` [MMV665799], the results for the activity at 2 µM in assay [1] and in assay [2] were 100% and 111%, respectively.
For `CCOc1cc(Cl)c(C(C)NC(=O)c2ccccc2)cc1OCC` (stereo not drawn) [MMV665800] the same measures were 100% and 111%.
`CCOc1cc(Cl)c(C(C)NC(=O)c2cccc(OC)c2)cc1OCC` (stereo not drawn) [MMV665803]: the activity at 2 µM was 113% in assay [1] and 124% in assay [2].
In the case of `CCOc1ccc(-c2nonc2NC(=O)c2cccc(C)c2)cc1OCC` [MMV665805], the activity at 2 µM is 106% in assay [1] and 107% in assay [2].
For `Cc1c(C)n(CC(O)CNC2CCCCC2C)c2ccccc12` (stereo not drawn) [MMV665806] the same measures were 106% and 108%.
For `O=C(Nc1cccc(C(F)(F)F)c1)c1cc(Cl)ccc1O` [MMV665807], the values for the activity at 2 µM in assay [1] and in assay [2] were 99% and 105%, respectively.
Consider `Oc1ccc(Br)cc1CN1CCN(Cc2ccc(Cl)cc2)CC1` [MMV665809], for which the results for the activity at 2 µM in assay [1] and in assay [2] were 93.3% and 91.7%, respectively.
Regarding `O=C(Nc1cccc(C2=NCCN2)c1)Nc1cccc(C2=NCCN2)c1` [MMV665810], the activity at 2 µM in assay [1] came to 85.8%; in assay [2], 84.4%.
Taken in the same sequence, the figures for `CCc1ccc(CNCC(O)c2ccccc2)cc1` (stereo not drawn) [MMV665812] were 95.4% and 96.2%.
Regarding `CCOC(=O)c1cnc2ccc(OC)cc2c1NCc1ccccc1` [MMV665813], the activity at 2 µM in assay [1] was found to be 115%; in assay [2], 114%.
Take `Oc1c(C(Nc2ccccn2)c2cccc(Oc3ccccc3)c2)ccc2cccnc12` (stereo not drawn) [MMV665814]: the activity at 2 µM amounted to 98.8% in assay [1] and 98.6% in assay [2].
With `CC(C)(C)CC(C)(C)NCC(O)COc1ccc2c(c1)CCC2` (stereo not drawn) [MMV665817], the activity at 2 µM in assay [1] was found to be 106%; in assay [2], 120%.
For `COc1ccc2c(=O)cc(C(Cl)(Cl)Cl)oc2c1` [MMV665820], the activity at 2 µM in assay [1] was 105%; in assay [2] it was 102%.
`COc1cccc(NC(=O)Cn2c(C)c(C#N)c3ccccc32)c1` [MMV665826]: the figures for the activity at 2 µM in assay [1] and in assay [2] were 101% and 109%, respectively.
On to `CCOC(=O)c1cn(CC)c2cc(N3CCCCC3)c(F)cc2c1=O` [MMV665827], for which the results for the activity at 2 µM in assay [1] and in assay [2] were 104% and 100%, respectively.
For the compound `CC1CC2=C(CC1CNCCCN(C)C)C(C)(C)CCC2` (stereo not drawn) [MMV665830], the activity at 2 µM in assay [1] was 105%; in assay [2], 104%.
Taken in the same sequence, the figures for `CCOC(=O)c1c(NC(=O)c2ccccc2)sc2c(O)c(CN(CC)CC)ccc12` [MMV665831] were 103% and 103%.
For `COc1ccc(C=C2SC(Nc3ccccc3)=NC2=O)cc1` [MMV665836] the same measures were 86.5% and 55.9%.
Turning to `O=C(Nc1ccc(-c2nc3ccccc3[nH]2)cc1)c1ccc(Cl)c(Cl)c1` [MMV665840], the activity at 2 µM in assay [1] is 109%; in assay [2], 107%.
As for `CCCc1cc(O)c2c3c(c(=O)oc2c1)CN(C)CC3` [MMV665841], the activity at 2 µM in assay [1] stood at 107%; in assay [2], 103%.
With `Oc1c2c(nc3ccccc13)CCCC2` [MMV665843], the activity at 2 µM in assay [1] stood at 109%; in assay [2], 111%.
Taken in the same sequence, the figures for `Oc1ccc(Cl)cc1CNc1nc2ccccc2[nH]1` [MMV665850] were 105% and 110%.
Consider `O=C(Nc1ccc(Cl)c(Cl)c1)Nc1ccc(Cl)c(Cl)c1` [MMV665852], for which the activity at 2 µM in assay [1] was 117%; in assay [2], 125%.
Turning to `CCOc1c(Cl)cc(CNC(C)C(O)c2ccccc2)cc1OC` (stereo not drawn) [MMV665857], the activity at 2 µM in assay [1] is 100%; in assay [2] it was 108%.
For `CCCCNc1nc(NC(C)(C)C)nc(NC(C)(C)C)n1` [MMV665864], the results for the activity at 2 µM in assay [1] and in assay [2] were 119% and 130%, respectively.
For `Cc1cc(Nc2ccc(C)c(Cl)c2)n2nc(C(F)(F)F)nc2n1` [MMV665874] the same measures were 107% and 106%.
As for `Cn1c(=O)n(C)c2cc(CNCCNc3ccnc4cc(Cl)ccc34)ccc21` [MMV665875], the activity at 2 µM in assay [1] worked out at 95.9%; in assay [2] it was 88.8%.
Turning to `CCC(c1ccccc1)c1nn2c(-c3cccs3)nnc2s1` (stereo not drawn) [MMV665876], the activity at 2 µM in assay [1] turned out to be 85.7%; in assay [2], 40.7%.
As for `COc1cccc(NC(=O)[C@H](C(C)C)n2c(=O)[nH]c3ccccc3c2=O)c1` [MMV665878], the activity at 2 µM in assay [1] stood at 102%; in assay [2], 101%.
Consider `CC(C)(C)C(=O)Nc1ccc(C(=O)Nc2cccc(-c3nc4ccccc4[nH]3)c2)cc1` [MMV665879], for which the activity at 2 µM in assay [1] amounted to 103%; in assay [2], 114%.
`COc1ccc(CNC(=O)c2cc3c(=O)n4ccccc4nc3n(CCc3ccccc3)c2=N)cc1` [MMV665881]: the activity at 2 µM in assay [1] is 104%; in assay [2], 98%.
With `OC(CNC1CCCCC1)Cn1c2ccc(I)cc2c2cc(I)ccc21` (stereo not drawn) [MMV665882], the activity at 2 µM is 103% in assay [1] and 93.7% in assay [2].
`O=C(Nc1cccc(-c2nc3ccccc3[nH]2)c1)c1cccc(NC(=O)c2ccco2)c1` [MMV665883]: the activity at 2 µM in assay [1] was found to be 107%; in assay [2], 102%.
Regarding `CC(Oc1ccc(NC(=O)c2cccs2)cc1)C(=O)c1ccc(Cl)cc1` (stereo not drawn) [MMV665886], the activity at 2 µM in assay [1] is 86.9%; in assay [2], 84.1%.
In the case of `O=C(Nc1ccccc1O)c1ccc(Oc2cccc(C(=O)Nc3ccccc3O)c2)cc1` [MMV665888], the activity at 2 µM was 102% in assay [1] and 104% in assay [2].
Consider `COc1ccc(-c2nonc2NC(=O)c2cccc(C)c2)cc1OC` [MMV665890], for which the activity at 2 µM turned out to be 104% in assay [1] and 113% in assay [2].
